Results published in paper PMC2267855, “Site-directed mutagenesis of Arginine282 suggests how protons and peptides are co-transported by rabbit PepT1” (The International Journal of Biochemistry & Cell Biology, 2008).
Where a chain is given by its changes, count along the chain named. Where a SMILES comes first, the peptide text is derived from it.

How the values were obtained:
[1] = target: T1, R282E-PepT1 (Oryctolagus cuniculus, UniProt P36836, R282E); test: Apparent charge:peptide stoichiometry (two-electrode voltage clamp current / radiolabelled uptake), R282E-PepT1; type: cell-based, rabbit; conditions: R282E-PepT1, pHout 5.5, resting membrane potential
T1 construct: expressed in transfected cells; host or cells: Xenopus laevis oocytes injected with cRNA
T1 sequence (P36836 1-707 R282E): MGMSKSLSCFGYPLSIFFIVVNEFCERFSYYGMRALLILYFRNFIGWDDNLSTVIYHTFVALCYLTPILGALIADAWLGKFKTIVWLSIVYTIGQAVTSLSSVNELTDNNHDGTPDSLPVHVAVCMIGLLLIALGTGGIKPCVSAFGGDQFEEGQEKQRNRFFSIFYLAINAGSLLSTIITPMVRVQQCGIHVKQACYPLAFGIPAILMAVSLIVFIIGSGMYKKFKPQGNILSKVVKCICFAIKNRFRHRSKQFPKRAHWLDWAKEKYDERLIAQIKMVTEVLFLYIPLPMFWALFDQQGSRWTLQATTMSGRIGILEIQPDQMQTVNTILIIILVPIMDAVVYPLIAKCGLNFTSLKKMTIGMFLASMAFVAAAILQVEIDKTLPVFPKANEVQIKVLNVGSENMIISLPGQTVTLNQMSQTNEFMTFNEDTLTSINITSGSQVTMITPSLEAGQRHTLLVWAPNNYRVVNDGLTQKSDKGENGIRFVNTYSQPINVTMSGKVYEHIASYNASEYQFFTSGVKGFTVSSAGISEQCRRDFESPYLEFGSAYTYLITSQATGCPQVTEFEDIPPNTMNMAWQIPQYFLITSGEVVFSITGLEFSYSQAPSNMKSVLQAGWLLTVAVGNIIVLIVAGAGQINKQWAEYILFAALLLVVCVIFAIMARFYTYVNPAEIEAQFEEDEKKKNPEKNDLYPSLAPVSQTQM
Method: Measurements of membrane potential were made by impaling oocytes with a single glass microelectrode (Intra 767 amplifier, WPI, Stevenage, Hertfordshire, UK) perfused in uptake medium (as above) with or without 0.4 μM D-Phe-L-Gln (synthesised in house), 0.6 mM Gly-L-Gln (Sigma, Poole, UK) or 10 mM 4-aminobenzoic acid (4-AMBA, Sigma). Two-electrode voltage clamp (TEVC) was performed by placing oocytes in a 0.1 ml recording chamber and perfusing with uptake solution (pH 5.5 or 7.4) at a rate of 15 ml/min. Oocytes were impaled by two agarose-cushioned microelectrodes filled with 3 M KCl (0.5–2.0 MΩ) and voltage-clamped at −60 mV using a Geneclamp 500B amplifier and PCLAMP 8.1 software (Axon Instruments, CA, USA). The holding potential was stepped from −60 mV over the range of −150 to +50 mV in 10 mV steps, each pulse lasting 100 ms, and returning to −60 mV in between test voltage pulses. Typically traces were filtered at 1 kHz during recording and digitized at 0.5–5 kHz using the DigiData 1200 interface (Axon Instruments, CA, USA). All experiments were carried out at room temperature.
In order to calculate the apparent charge:substrate stoichiometry, the peptide induced current that was measured by two-electrode voltage clamp at the oocyte resting membrane potential was divided by the radiolabelled dipeptide uptake in oocytes from the same preparation. […]

[2] = target: T2, R282Q-PepT1 (Oryctolagus cuniculus, UniProt P36836, R282Q); test: Inhibition of [3H]-D-Phe-L-Gln uptake into Xenopus oocytes expressing R282Q-PepT1 (competition, Ki); type: cell-based, rabbit; conditions: pHout 5.5, 0.4 μM [3H]-D-Phe-L-Gln
T2 construct: expressed in transfected cells; host or cells: Xenopus laevis oocytes injected with cRNA
T2 sequence (P36836 1-707 R282Q): T1 sequence (P36836 1-707 R282E) with E282Q
Method: Zero-trans uptake of [^3H]-D-Phe-L-Gln (17.4 Ci/mmole, custom synthesised, Cambridge Research Biochemicals, Stockton-on-Tees, UK) was performed as previously described ([Meredith, 2004]). Briefly, 5 oocytes were incubated in 100 μl of uptake medium (95 mM NaCl, 2 mM KCl, 1 mM CaCl2, 0.42 mM MgCl2, 10 mM Tris/Hepes pH 7.4 or Tris/Mes pH 5.5) with tracer (0.4 μM) [^3H]-D-Phe-L-Gln. After incubation, the oocytes were washed sequentially five times in 1 ml of ice-cold 120 mM NaCl solution, lysed individually with 100 μl 2% (w/v) SDS and liquid scintillation counted. As a control non-injected oocytes were also incubated in uptake medium with [^3H]-D-Phe-L-Gln as above.
The affinity of wild-type and mutant PepT1 were assessed by competition studies with 0.4 μM [^3H]-D-Phe-L-Gln and Gly-L-Gln present in the uptake medium in concentrations from 0 to 2 mM using the protocol above, and the Ki calculated using the method of [Deves and Boyd (1989)].

With `NC(=O)CC[C@H](NC(=O)[C@H](N)Cc1ccccc1)C(=O)O` [D-Phe-L-Gln] the “apparent stoichiometry (charge:peptide), normalised to wild-type 1:1” value [1] was 4.

`NCC(=O)N[C@@H](CCC(N)=O)C(=O)O` [Gly-L-Gln] (H-Gly-Gln-OH) showed a Ki [2] of 460 ± 220 µM.
